Data from patent US20060135393A1, “Mild cleansing composition” (KPSS-Kao Professional Salon Services GmbH, priority 2004, published 2006).

Test system: male and female volunteers backs
Assay: Occlusive multiple patch test for skin irritation potential (Hayes Chamber)
Type: in vivo, human
Conditions: shampoos diluted to 10% by weight in tap water; 25 μl per chamber; 3 applications, 72 hours total skin contact; visual scoring by dermatologist, 0 (no apparent cutaneous involvement) to 4 (severe erythema with edema)
Method: The above composition and the comparative compositions (see below) were tested for their skin irritation potential in an occlusive patch test using male and female volunteers backs aging 45+−14 years using Hayes Chamber with 25 μl volume. In detail, the shampoo compositions to be tested were diluted to a shampoo concentration of 10% by weight in tap water and homogeneously mixed. Using a laboratory calibrated pipette 25 μl of the solutions were filled into the chambers and the samples were patched onto the backs of the volunteers. The application was repeated 3 times (the duration of skin contact in total is 72 hours). After removal of the last patch (after 72 hrs), the application areas were evaluated visually by a dermatologist. The evaluation scores were as follows: [table] Such kind of tests are offered by several dermatological institutes or dermatologists having private clinics and the tests of the present invention were as well carried out in a dermatological institutes in Germany.

CCCCCCCCCCCCOS(=O)(=O)[O-].[Na+] [1% SDS* solution, sodium dodecyl sulfate]
Irritation score: 1.99
